We go through eleven molecules from US20200148646A1, “6-S[…] 7-S[…] ANALOGS AND THE USE THEREOF” (Purdue Pharma, L.P., priority 2013, published 2020).

Assay [1] has as its target T1, human κ opioid receptor (Homo sapiens, UniProt P41145). The assay is described as follows: κ-opioid receptor [35S]GTPγS functional assay, U-2 OS cells. It counts as biochemical. On the set-up: expressed in transfected cells; host or cells: U-2 OS cells (in-house membranes). Particulars: for Emax: U2-OS cells, relative to U69,593. The method in brief: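 Membranes from U-2 OS cells expressing human κ receptor (0.026 μg/μl protein) were incubated with agonist, 10 μg/mL saponin, 3 μM GDP and 0.20 nM [35S]GTPγS in pH 7.4 HEPES buffer for 30 min at about 25 °C. Bound radioactivity was measured after filtration. EC50 was taken at half-maximal response; Emax is relative to U69,593.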
(In general: GTPγS resists hydrolysis and so accumulates on activated G proteins.)

For assay [2], the target named is T2, μ-opioid receptor (Homo sapiens, UniProt P35372). The assay is described as follows: μ-opioid receptor radioligand ([3H]-diprenorphine) dose-displacement binding assay, HEK-293 or CHO cells. The procedure: Radioligand dose-displacement binding assays for μ-opioid receptors used 0.3 nM [^3H]-diprenorphine (Perkin Elmer, Shelton, Conn.), with […] membrane protein/well in a final volume of 500 μl binding buffer (10 mM MgCl2, 1 mM EDTA, 5% DMSO, 50 mM HEPES, pH 7.4). Reactions were carried out in the absence or presence of increasing concentrations of unlabeled naloxone. All reactions were conducted in 96-deep well polypropylene plates for 2 hr at room temperature. Binding reactions were terminated by rapid filtration onto 96-well Unifilter GF/C filter plates (Perkin Elmer, Shelton, Conn.), presoaked in 0.5% polyethylenimine using a 96-well tissue harvester (Perkin Elmer, Shelton, Conn.) followed by performing three filtration washes with 500 μl of ice-cold binding buffer. Filter plates were subsequently dried at 50° C. for 2-3 hours. BetaScint scintillation cocktail (Perkin Elmer, Shelton, Conn.) was added (50 l/well), and plates were counted using a Packard Top-Count for 1 min/well. The data were analyzed using the one-site competition curve fitting functions in GraphPad PRISM™ v. 3.0 or higher (San Diego, Calif.), or an in-house function for one-site competition curve-fitting.
T2 sequence (P35372 whole entry, species assumed): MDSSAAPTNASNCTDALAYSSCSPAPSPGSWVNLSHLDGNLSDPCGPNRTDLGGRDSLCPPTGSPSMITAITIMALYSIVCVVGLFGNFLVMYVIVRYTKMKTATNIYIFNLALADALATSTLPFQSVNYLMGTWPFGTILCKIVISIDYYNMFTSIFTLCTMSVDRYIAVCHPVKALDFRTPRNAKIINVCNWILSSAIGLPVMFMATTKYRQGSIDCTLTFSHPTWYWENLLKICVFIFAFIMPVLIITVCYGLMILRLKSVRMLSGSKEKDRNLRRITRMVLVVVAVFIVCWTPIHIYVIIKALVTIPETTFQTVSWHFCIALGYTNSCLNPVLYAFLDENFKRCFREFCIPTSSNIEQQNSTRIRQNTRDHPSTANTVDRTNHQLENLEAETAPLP
(§1) In TABLE 1, binding affinity of certain Compounds of the Invention to the μ-, and κ-opioid receptors in HEK-293 or CHO cells was determined as described above.

For assay [3], the target named is T1, human κ opioid receptor. Description: κ-opioid receptor radioligand ([3H]-U69,593) dose-displacement binding assay, HEK-293 or CHO cells. Details: expressed in transfected cells; host or cells: HEK-293 cells (in-house prep). The procedure:
Membranes from recombinant HEK-293 cells expressing the human K opioid receptor (cloned in house) were prepared by lysing cells in ice cold hypotonic buffer (2.5 mM MgCl2, 50 mM HEPES, pH 7.4) (10 mL/10 cm dish) followed by homogenization with a tissue grinder/Teflon pestle. Membranes were collected by centrifugation at 30,000×g for 15 min at 4° C. and pellets were resuspended in hypotonic buffer to a final concentration of 1-3 mg/mL. Protein concentrations were determined using the BioRad protein assay reagent with bovine serum albumen as standard. Aliquots of κ receptor membranes were stored at −80° C.
Radioligand dose displacement assays used 0.4 nM [^3H]-U69,593 (GE Healthcare, Piscataway, N.J.; 40 Ci/mmole) with 15 μg membrane protein (recombinant K opioid receptor expressed in HEK 293 cells; in-house prep) in a final volume of 200 μl binding buffer (5% DMSO, 50 mM Trizma base, pH 7.4). Non-specific binding was determined in the presence of 10 μM unlabeled naloxone or U69,593. All reactions were performed in 96-well polypropylene plates for 1 hr at a temperature of about 25° C. Binding reactions were terminated by rapid filtration onto 96-well Unifilter GF/C filter plates (Perkin Elmer, Shelton, Conn.) presoaked in 0.5% polyethylenimine (Sigma). Harvesting was performed using a 96-well tissue harvester (Perkin Elmer, Shelton, Conn.) followed by five filtration washes with 200 μl ice-cold binding buffer. Filter plates were subsequently dried at 50° C. for 1-2 hours. Fifty μl/well scintillation cocktail (Perkin Elmer, Shelton, Conn.) was added and plates were counted in a Packard Top-Count for 1 min/well.
as §1

The target in assay [4] is T2, μ-opioid receptor. The assay is described as follows: μ-opioid receptor [35S]GTPγS functional assay, U-2 OS cells. Format: biochemical. On the set-up: host or cells: U-2 OS cells. To be noted: for Emax: U2-OS cells, relative to DAMGO. In outline: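 U-2 OS membranes expressing recombinant human μ-receptor (0.026 mg/mL) were incubated with compound, […], saponin and [35S]GTPγS 0.20 nM in HEPES/NaCl/MgCl2 buffer pH 7.4 for 30 min at about 25° C. Filter-bound radioactivity gave sigmoidal fits for EC50; Emax is relative to DAMGO.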

In assay [5] the target is T2, μ-opioid receptor. The assay is described as follows: μ-opioid receptor [35S]GTPγS functional assay, HEK-293 or CHO cells. It counts as biochemical. Particulars: for Emax: HEK-293 or CHO cells, relative to DAMGO. As for the experimental part:
[^35S]GTPγS functional assays were conducted using freshly thawed μ-receptor membranes prepared in-house from a cell line expressing recombinant opioid receptor in a HEK-293, CHO or U-2 OS cell background, or purchased from a commercial source (Perkin Elmer, Shelton, Conn.; or DiscovRx, Fremont, Calif.). Assay reactions were prepared by sequentially adding the following reagents to binding buffer (100 mM NaCl, 10 mM MgCl2, 20 mM HEPES, pH 7.4) on ice (final concentrations indicated): membrane protein (0.026 mg/mL), saponin ([…]), GDP ([…]) and [^35S]GTPγS (0.20 nM; Perkin Elmer, Shelton, Conn.). The prepared membrane solution (190 l/well) was transferred to 96-shallow well polypropylene plates containing 10 μl of 20× concentrated stock solutions of the agonist [D-Ala^2, N-methyl-Phe^4 Gly-ol^5]-enkephalin (DAMGO) prepared in dimethyl sulfoxide (DMSO). Plates were incubated for 30 min at about 25° C. with shaking. Reactions were terminated by rapid filtration onto 96-well Unifilter GF/B filter plates (Perkin Elmer, Shelton, Conn.) using a 96-well tissue harvester (Perkin Elmer, Shelton, Conn.) followed by three filtration washes with 200 μl of ice-cold wash buffer (10 mM NaH2PO4, 10 mM Na2HPO4, pH 7.4). Filter plates were subsequently dried at 50° C. for 2-3 hr. BetaScint scintillation cocktail (Perkin Elmer, Shelton, Conn.) was added (50 μl/well) and plates were counted using a Packard Top-Count for 1 min/well. Data were analyzed using the sigmoidal dose-response curve fitting functions in GraphPad PRISM v. 3.0, or an in-house function for non-linear, sigmoidal dose-response curve-fitting.
μ GTP EC50 is the concentration of a compound providing 50% of the maximal response for the compound at a μ-opioid receptor.
μ GTP Emax (%) is the maximal effect elicited by a compound relative to the effect elicited by DAMGO, a standard agonist. Generally, the μ GTP Emax (%) value measures the efficacy of a compound to treat or prevent pain or other Conditions.
In TABLE 2, activity response of certain Compounds of the Invention at the μ- and κ-opioid receptors using HEK-293 or CHO cells was determined as described above for functional assays.

T1 sequence (P41145 whole entry): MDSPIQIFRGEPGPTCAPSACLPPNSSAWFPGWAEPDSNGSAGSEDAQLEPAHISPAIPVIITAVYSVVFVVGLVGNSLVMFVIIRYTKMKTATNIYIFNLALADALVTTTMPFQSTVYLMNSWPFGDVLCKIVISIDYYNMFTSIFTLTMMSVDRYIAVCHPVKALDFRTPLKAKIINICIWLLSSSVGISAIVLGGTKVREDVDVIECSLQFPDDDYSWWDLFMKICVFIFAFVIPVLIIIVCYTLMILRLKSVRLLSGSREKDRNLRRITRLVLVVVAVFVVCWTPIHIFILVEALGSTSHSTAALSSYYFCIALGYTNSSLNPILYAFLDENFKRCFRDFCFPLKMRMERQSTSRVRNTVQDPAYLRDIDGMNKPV

As for `NCCCN[C@@H]1CC[C@@]2(O)[C@H]3Cc4ccc(O)cc4[C@@]2(CCN3CC2CC2)C1` [Compound 13, (4bR,6R,8aS,9R)-6-((3-aminopropyl)amino)-11-(cyclopropylmethyl)-5,6,7,8,9,10-hexahydro-8aH-9,4b-(epiminoethano)phenanthrene-3,8a-diol], the EC50 was found to be 2.13 ± 0.41 nM at human κ opioid receptor [1] and 38.9 ± 4.9 nM on μ-opioid receptor [4]. For the same molecule, the results for the Emax at human κ opioid receptor [1] and on μ-opioid receptor [4] were 117 ± 1.86% and 66.3 ± 5.78%, respectively. Moreover, the Ki was 80 ± 27.1 nM on μ-opioid receptor [2] and 0.51 ± 0.073 nM on human κ opioid receptor [3].
At human κ opioid receptor [1], `N=C(N)NCCC(=O)N[C@@H]1CC[C@@]2(O)[C@H]3Cc4ccc(O)cc4[C@@]2(CCN3CC2CC2)C1` [Compound 21, N-((4bR,6R,8aS,9R)-11-(cyclopropylmethyl)-3,8a-dihydroxy-6,7,8,8a,9,10-hexahydro-5H-9,4b-(epiminoethano)phenanthren-6-yl)-3-guanidinopropanamide] came in with an EC50 of 120 ± 2.94 nM and an Emax of 105.3 ± 0.88%. The molecule further returned a Ki on μ-opioid receptor [2] of 1010 ± 221 nM. Besides, on human κ opioid receptor [3], the affinity, expressed as Ki, was 4.61 ± 1.05 nM.
In the case of `CC(C)CN[C@H]1CC[C@]23CCN(CC4CC4)[C@H](Cc4ccc(O)cc42)[C@]3(O)C1` [Compound 42, (4bS,7S,8aS,9R)-11-(cyclopropylmethyl)-7-(isobutylamino)-5,6,7,8,9,10-hexahydro-8aH-9,4b-(epiminoethano)phenanthrene-3,8a-diol], the EC50 came to 0.25 ± 0.029 nM on human κ opioid receptor [1], 20.2 ± 7.83 nM on μ-opioid receptor [5] and 2.81 ± 0.16 nM on μ-opioid receptor [4]. For the same molecule, the Emax amounted to 110% at human κ opioid receptor [1], 16.6 ± 1.63% on μ-opioid receptor [5] and 67.3 ± 2.85% at μ-opioid receptor [4].
With `COc1ccc2c(c1)[C@@]13CC[C@H](NC(=O)C(C)C)C[C@@]1(O)[C@@H](C2)N(CC1CC1)CC3` [Compound 45, N-((4bS,7S,8aS,9R)-11-(cyclopropylmethyl)-8a-hydroxy-3-methoxy-6,7,8,8a,9,10-hexahydro-5H-9,4b-(epiminoethano)phenanthren-7-yl)isobutyramide], the results for the EC50 on human κ opioid receptor [1], at μ-opioid receptor [5] and on μ-opioid receptor [4] were 10.6 ± 2.1 nM, 308 ± 122 nM and 72 ± 15.9 nM, respectively. The maximal response (Emax) amounted to 106 ± 1% on human κ opioid receptor [1], 15.3 ± 1.86% on μ-opioid receptor [5] and 71 ± 5.69% at μ-opioid receptor [4].
Consider `CC(C)C(=O)N[C@H]1CC[C@]23CCN(CC4CC4)[C@H](Cc4ccc(O)cc42)[C@]3(O)C1` [Compound 46, N-((4bS,7S,8aS,9R)-11-(cyclopropylmethyl)-3,8a-dihydroxy-6,7,8,8a,9,10-hexahydro-5H-9,4b-(epiminoethano)phenanthren-7-yl)isobutyramide], for which the EC50 on human κ opioid receptor [1] was 0.1 ± 0.021 nM; at μ-opioid receptor [5], more than 20000 nM; at μ-opioid receptor [4], 0.38 ± 0.11 nM. Further, the Emax turned out to be 102 ± 5.24% at human κ opioid receptor [1], 7.67 ± 3.48% at μ-opioid receptor [5] and 54 ± 6.03% at μ-opioid receptor [4].
With `CC(C)CCCC(=O)N[C@H]1C[C@@]2(O)[C@H]3Cc4ccc(O)cc4[C@@]2(CCN3CC2CC2)C[C@H]1O` [Compound 62, N-((4bR,6R,7S,8aS,9R)-11-(cyclopropylmethyl)-3,6,8a-trihydroxy-6,7,8,8a,9,10-hexahydro-5H-9,4b-(epiminoethano)phenanthren-7-yl)-5-methylhexanamide], the values for the EC50 at human κ opioid receptor [1], on μ-opioid receptor [5] and on μ-opioid receptor [4] were 17.4 ± 1.46 nM, 54.7 ± 4.52 nM and 43.3 ± 5.6 nM, respectively. The figures for the Emax at human κ opioid receptor [1], at μ-opioid receptor [5] and at μ-opioid receptor [4] were 90.2 ± 1.65%, 23.3 ± 0.67% and 60.3 ± 0.88%, respectively.
For the molecule `O=C1C=C2[C@H]3Cc4ccc(O)cc4[C@]2(CC1)CCN3CC1CC1` [Compound 68, (4bS,9R)-11-(cyclopropylmethyl)-3-hydroxy-5,6,9,10-tetrahydro-7H-9,4b-(epiminoethano)phenanthren-7-one], the values for the EC50 on human κ opioid receptor [1], at μ-opioid receptor [5] and at μ-opioid receptor [4] were 1.67 ± 0.099 nM, more than 20000 nM and 4.54 ± 1.28 nM, respectively. Also, the figures for the maximal response (Emax) on human κ opioid receptor [1], at μ-opioid receptor [5] and on μ-opioid receptor [4] were 104 ± 2.31%, 6 ± 3% and 31.3 ± 1.33%, respectively.
For `COc1ccc2c(c1)[C@]13CCN(CC4CC4)[C@H](C2)[C@]12C[C@H](OCc1ccccc1)[C@H](C3)O2` [Compound 102, (4bR,6S,7S,8aS,9R)-7-(benzyloxy)-11-(cyclopropylmethyl)-3-methoxy-5,6,7,8,9,10-hexahydro-9,4b-(epiminoethano)-6,8a-epoxyphenanthrene], the EC50 is 1920 nM on human κ opioid receptor [1], 1520 ± 465 nM on μ-opioid receptor [5] and 470 ± 69.9 nM at μ-opioid receptor [4]. For the same molecule, the results for the Emax at human κ opioid receptor [1], on μ-opioid receptor [5] and at μ-opioid receptor [4] were 58.3 ± 0.67%, 10.5 ± 1.26% and 42 ± 1.73%, respectively.
At μ-opioid receptor [5], `COc1ccc2c(c1)[C@]13CCN(C)[C@H](C2)[C@H]1[C@H](O)C[C@@H](OCCO)C3` [Compound 119, (4bS,6S,8R,8aS,9R)-6-(2-hydroxyethoxy)-3-methoxy-11-methyl-6,7,8,8a,9,10-hexahydro-5H-9,4b-(epiminoethano)phenanthren-8-ol] returned an EC50 of more than 20000 nM and an Emax of 24.2 ± 3.04%.
At μ-opioid receptor [5], `CN1CC[C@]23C[C@@H](OCCO)C[C@@H](O)[C@@H]2[C@H]1Cc1ccc(O)cc13` [Compound 120, (4bS,6R,8R,8aS,9R)-6-(2-hydroxyethoxy)-11-methyl-6,7,8,8a,9,10-hexahydro-5H-9,4b-(epiminoethano)phenanthrene-3,8-diol] yielded an EC50 of 436 ± 34.7 nM and an Emax of 36.3 ± 1.43%.
On μ-opioid receptor [5], `CN1CC[C@]23C[C@H](OCCO)C[C@@H](O)[C@@H]2[C@H]1Cc1ccc(O)cc13` [Compound 121, (4bS,6S,8R,8aS,9R)-6-(2-hydroxyethoxy)-11-methyl-6,7,8,8a,9,10-hexahydro-5H-9,4b-(epiminoethano)phenanthrene-3,8-diol] yielded an EC50 of 1960 ± 876 nM and an Emax of 16.6 ± 1.97%.

The EC50 is the concentration giving half of the maximal effect. Read a high EC50 as weaker potency. In general, Emax refers to the greatest response seen or fitted, relative to the assay's reference. For orientation: Ki means the equilibrium dissociation constant of an inhibitor or competing ligand from its target. High values mean a looser hold on the target, low ones a stronger hold on the target.
